PMC4298654, “In vivo formation of N-acyl-fumonisin B1” (Mycotoxin Research, 2014)

Experiment: In vivo formation of NAFB1 and NAHFB1 in rat kidney and liver (HPLC-ESI-MS/MS)
Design: N-acyl-derivative in tissue sample, analysis a / N-acyl-derivative in tissue sample, analysis b / N-acyl-derivative in tissue sample, mean: unit not given here
Settings: 5 days
Text: The study protocol was approved by the Institutional Animal Care and Use Committee, Richard B. Russell Agricultural Research Center, Athens, GA. Male Sprague–Dawley rats (Harlan Industries, Indianapolis, IN, USA), 7 weeks of age at receipt, were individually housed in stainless steel, wire mesh cages in an environmentally controlled room having a 12-h light/dark cycle. Food (2019 Global Rodent Diet, Teklad, Madison, WI, USA) and fresh tap water were provided ad libitum. After a 1 week acclimation period, the animals were randomly assigned to five groups (n = 2/group) having mean weights of 215 to 216 g (weight range of all animals, 211 to 220 g). For five consecutive days, they were observed, weighed, and given an intraperitoneal injection (ip) of 0 (vehicle), 0.5, 1.0, or 2.0 mg/kg body weight FB1 (provided by R. Eppley, US FDA), 1.0 mg/kg body weight HFB1 (positive control) (Voss et al. [2009]), or vehicle (0.9 % physiological saline). These doses corresponded to 0.69, 1.38, and 2.77 μmol FB1/kg body weight and 2.47 μmol/kg body weight HFB1 per day. In order to compare the effects of FB1 and HFB1, dosages will be expressed as molar concentrations and, on this basis, the high dose of FB1 is roughly equivalent to that of the positive control dose of HFB1. Dosing solutions were sterile filtered and administered at a volume rate of 10 ml/kg body weight. The animals were fasted overnight prior to administration of the final dose. The rats were euthanized (CO2 inhalation and exsanguination) 60 to 90 min following the final dose administration and examined by necropsy. The kidney and liver specimens were fixed in 10 % neutral buffered formalin, processed, and microscopically evaluated without knowledge of the animal’s identity or treatment group. Three representative liver and kidney specimens (100 mg each) were also collected, immediately frozen, and stored (−80 °C) until processed, at which time the tissues were thawed and homogenized in distilled/deionized water (1 ml water/100 mg tissue). The homogenates were lyophilized before they were shipped by overnight courier for the analysis of fumonisin metabolites and sphingolipids.
Lyophilized liver and kidney tissues (100 mg wet weight equivalents) were processed for the quantification of FB1, HFB1, NAFB1, NAHFB1, and sphingolipids. Preparation of the tissue samples was performed according to a previously published method (Harrer et al. [2013]). For the quantification of FB1 and HFB1, a d6-labeled derivative of FB1 (FB1-d6) was used as the internal standard. Synthetic derivatives with a heptadecanoic fatty acid (C17:0) residue were used as internal standards for the quantification of N-acyl-fumonisins and ceramides (N-C17:0-FB1, N-C17:0-HFB1, and N-C17:0-ceramide). The sphingoid bases and their phosphate derivatives were quantified using synthetic derivatives with a C17-acyl-backbone: sphingosine (C17:1), sphingosine-1-phosphate (C17:1), sphinganine (C17:0), sphinganine-1-phosphate (C17:0) as internal standards. The standards were dissolved in methanol:chloroform (2:1, v/v) and then mixed with the tissue samples. The samples spiked with internal standard were kept at room temperature for 30 min before being processed further. The internal standard-spiked samples were first extracted with ethyl acetate, isopropanol, and water (60:30:10, v/v/v) and a second time using methanol, chloroform, and water (60:30:10, v/v/v). The extracts were combined, the solvents removed by evaporation, and the dried samples stored at−80 °C till analyzed.
For the analysis, the samples were reconstituted in a mixture of water, methanol, and tetrahydrofurane (60:24:16, v/v/v). The NAFB1 and NAHFB1 derivatives having the following fatty acyl chain lengths were quantified by HPLC-MS/MS: C16:0, C18:0, C20:0, C22:0, C24:0, C26:0. Furthermore, we also quantified the unsaturated derivatives C24:1 and C26:1. The results are given as the sum of all N-acyl derivatives of FB1 or HFB1. […]

[1] = Kidney, treatment FB1 0,5 mg/kg BW ip
[2] = Kidney, treatment FB1 1 mg/kg BW ip
[3] = Kidney, treatment FB1 2 mg/kg BW ip
[4] = Kidney, treatment HFB1 1 mg/kg BW ip
[5] = Liver, treatment FB1 0,5 mg/kg BW ip
[6] = Liver, treatment FB1 1 mg/kg BW ip
[7] = Liver, treatment FB1 2 mg/kg BW ip
[8] = Liver, treatment HFB1 1 mg/kg BW ip

| Compound | N-acyl-derivative in tissue sample, analysis a [1] | N-acyl-derivative in tissue sample, analysis b [1] | N-acyl-derivative in tissue sample, mean [1] | N-acyl-derivative in tissue sample, analysis a [2] | N-acyl-derivative in tissue sample, analysis b [2] | N-acyl-derivative in tissue sample, mean [2] | N-acyl-derivative in tissue sample, analysis a [3] | N-acyl-derivative in tissue sample, analysis b [3] | N-acyl-derivative in tissue sample, mean [3] | N-acyl-derivative in tissue sample, analysis a [4] | N-acyl-derivative in tissue sample, analysis b [4] | N-acyl-derivative in tissue sample, mean [4] | N-acyl-derivative in tissue sample, analysis a [5] | N-acyl-derivative in tissue sample, analysis b [5] | N-acyl-derivative in tissue sample, mean [5] | N-acyl-derivative in tissue sample, analysis a [6] | N-acyl-derivative in tissue sample, analysis b [6] | N-acyl-derivative in tissue sample, mean [6] | N-acyl-derivative in tissue sample, analysis a [7] | N-acyl-derivative in tissue sample, analysis b [7] | further results |
| --- | --- | --- | --- | --- | --- | --- | --- | --- | --- | --- | --- | --- | --- | --- | --- | --- | --- | --- | --- | --- | --- |
| CCCCCCCCCCCCCCCC(=O)N[C@@H](C)[C@@H](O)C[C@H](O)CCCC[C@@H](O)C[C@H](C)C[C@H](O)[C@H](O)[C@H](C)CCCC [HFB1C16:0] | 0,0 | 0,2 | 0,1 | 0,2 | 0,1 | 0,2 | 0,3 | 0,5 | 0,4 | 22,7 | 37,3 | 30,0 | 0,3 | 0,4 | 0,3 | 0,0 | 0,4 | 0,2 | 0,0 | 0,3 | N-acyl-derivative in tissue sample, mean [7]: 0,1; N-acyl-derivative in tissue sample, analysis a [8]: 34,9; N-acyl-derivative in tissue sample, analysis b [8]: 44,3; N-acyl-derivative in tissue sample, mean [8]: 39,6 |
| CCCCCCCCCCCCCCCCCC(=O)N[C@@H](C)[C@@H](O)C[C@H](O)CCCC[C@@H](O)C[C@H](C)C[C@H](O)[C@H](O)[C@H](C)CCCC [HFB1C18:0] | 0,1 | 0,2 | 0,2 | 0,1 | 0,0 | 0,1 | 0,0 | 0,1 | 0,1 | 2,6 | 1,8 | 2,2 | 0,3 | 0,1 | 0,2 | 0,0 | 0,0 | 0,0 | 0,0 | 0,0 | N-acyl-derivative in tissue sample, mean [7]: 0,0; N-acyl-derivative in tissue sample, analysis a [8]: 1,5; N-acyl-derivative in tissue sample, analysis b [8]: 2,0; N-acyl-derivative in tissue sample, mean [8]: 1,8 |
| CCCCCCCCCCCCCCCCCCCC(=O)N[C@@H](C)[C@@H](O)C[C@H](O)CCCC[C@@H](O)C[C@H](C)C[C@H](O)[C@H](O)[C@H](C)CCCC [HFB1C20:0] | 0,0 | 0,0 | 0,0 | 0,0 | 0,1 | 0,1 | 0,0 | 0,0 | 0,0 | 3,1 | 0,6 | 1,8 | 0,0 | 0,2 | 0,1 | 0,2 | 0,1 | 0,2 | 0,0 | 0,0 | N-acyl-derivative in tissue sample, mean [7]: 0,0; N-acyl-derivative in tissue sample, analysis a [8]: 8,9; N-acyl-derivative in tissue sample, analysis b [8]: 13,1; N-acyl-derivative in tissue sample, mean [8]: 11,0 |
